Test results reported in patent publication US8071383B2, “D-amino acid selection for soybean” (BASF Plant Science GmbH, priority 2006, dated 2011).

What was measured:
[1] = system: soybean primary node explants inoculated with REW008; experiment: D-alanine and D-alanine/D-serine killing curves using primary node explants; type: cell-based, Glycine max; conditions: for D-alanine Kill Curve-regeneration (%) after 3 weeks on SIM: Experiment 1; for D-alanine + 7.5 mM D-serine Kill Curve-regeneration (%) after 3 weeks on SIM: Experiment 2
Protocol: Kill curves for D-alanine selection with and without 7.5 mM D-serine were conducted for future experiments using dao1 as a selectable marker gene. The combination of using D-alanine and D-serine was also performed for the dao1 gene which can metabolize both D-alanine and D-serine. The binary plasmids RET019 (Pactin-dao1, Pubi-gus) and REW008 (Pnos-bar, Pubi-gus) were used as a positive and a negative control, respectively, and the T-DNA mobilized into soybean using Agrobacterium rhizogenes strain SHA017pSB1.
Explants were inoculated with Agrobacterium, co-cultivated for 5 days, then moved onto shoot induction medium with or without selection for one week. After that time, explants were transferred onto new SIM with selection.
In experiment 1, D-alanine was added to the SIM medium at the following concentrations: 0, 3, 7.5, 10, 20, 30, and 50 mM.
In experiment 2, D-alanine was added in the same concentrations with 7.5 mM D-serine.
The experimental design was as follows: T(treatment)1: 7 explants inoculated with REW008 with 1 week recovery; T2: 7 explants inoculated with REW008 with no recovery; The results of the experiment are shown in Table 2b. […] This drop was not seen on explants with recovery until 20 mM D-alanine. When in combination with D-serine, the explants do have reduced regeneration at lower concentrations, between 7.5 and 10 mM.

soybean explants = experiment: SELDA selection and co-cultivation hormones, transformation efficiency; type: cell-based, Glycine max; conditions: for Ave TE (%) / Confirmed events / TE range (%): vector RLM407, D-serine selection
Protocol: In the first experiment, the experimental design included 10 repetitions over time (cutting experiments by 3 researchers) with 4 different co-cultivation media (treatments) per repetition and a minimum of 50 explants per treatment. Solid co-cultivation was prepared as stated earlier except the hormone, BAP, was replaced with one of the 4 following hormones: 7.5 μM BAP, 1.0 μM kinetin, 5.0 μM kinetin, or 7.5 μM kinetin. In the second experiment, the experimental design included 3 repetitions over time (cutting experiments by 1 researcher) with 5 different co-cultivation media (treatments) per repetition and a minimum of 50 explants per treatment. Solid co-cultivation was prepared by replacing BAP with one of the 5 following hormones: 7.5 μM BAP, 1.0 μM kinetin, 3 μM kinetin, 5 μM kinetin, or 7 μM kinetin.
For both experiments, explants were prepared, inoculated with 50 mL of liquid co-cultivation medium containing SHA017/pSB1 carrying vector RLM407 for 30 minutes, and then randomly placed onto 1 of 4 or 5 solid co-cultivation media treatments, respectively. The protocol was followed as stated above with the D-serine selection regime: one week on shoot induction without selection, 3 weeks on shoot induction medium with 7.5 mM D-serine, then 5 mM D-serine throughout shoot elongation. Only one shoot per explant was removed to eliminate regeneration of clones. Putative transformants were confirmed for the presence of the dsda gene using quantitative PCR (TaqMan) and the transformation efficiency (TE) was calculated using the formula: [(number of dsda positive TaqMan confirmed independent events/total number of explants inoculated (n))*100].

[2] = Table 6 (experiment 1), 7.5 uM BAP in co-cultivation medium
[3] = Table 7 (experiment 2), 7.5 uM BAP in co-cultivation medium
[4] = Table 6 (experiment 1), 1 uM Kinetin in co-cultivation medium
[5] = Table 6 (experiment 1), 5 uM Kinetin in co-cultivation medium
[6] = Table 6 (experiment 1), 7.5 uM Kinetin in co-cultivation medium
[7] = Table 7 (experiment 2), 1 uM Kinetin in co-cultivation medium
[8] = Table 7 (experiment 2), 3 uM Kinetin in co-cultivation medium
[9] = Table 7 (experiment 2), 5 uM Kinetin in co-cultivation medium
[10] = Table 7 (experiment 2), 7 uM Kinetin in co-cultivation medium

## C[C@@H](N)C(=O)O [D-alanine]
[1]; 3 mM D-alanine, T1: REW008 with 1 week recovery
  D-alanine Kill Curve-regeneration (%) after 3 weeks on SIM: 100%
[1]; 3 mM D-alanine, T2: REW008 with no recovery
  D-alanine Kill Curve-regeneration (%) after 3 weeks on SIM: 71%
[1]; 7.5 mM D-alanine, T1: REW008 with 1 week recovery
  D-alanine Kill Curve-regeneration (%) after 3 weeks on SIM: 100%
[1]; 7.5 mM D-alanine, T2: REW008 with no recovery
  D-alanine Kill Curve-regeneration (%) after 3 weeks on SIM: 86%
[1]; 10 mM D-alanine, T1: REW008 with 1 week recovery
  D-alanine Kill Curve-regeneration (%) after 3 weeks on SIM: 100%
[1]; 10 mM D-alanine, T2: REW008 with no recovery
  D-alanine Kill Curve-regeneration (%) after 3 weeks on SIM: 71%
[1]; 20 mM D-alanine, T1: REW008 with 1 week recovery
  D-alanine Kill Curve-regeneration (%) after 3 weeks on SIM: 100%
[1]; 20 mM D-alanine, T2: REW008 with no recovery
  D-alanine Kill Curve-regeneration (%) after 3 weeks on SIM: 27%
[1]; 30 mM D-alanine, T1: REW008 with 1 week recovery
  D-alanine Kill Curve-regeneration (%) after 3 weeks on SIM: 29%
[1]; 30 mM D-alanine, T2: REW008 with no recovery
  D-alanine Kill Curve-regeneration (%) after 3 weeks on SIM: 0%
[1]; 50 mM D-alanine, T1: REW008 with 1 week recovery
  D-alanine Kill Curve-regeneration (%) after 3 weeks on SIM: 0%
[1]; 50 mM D-alanine, T2: REW008 with no recovery
  D-alanine Kill Curve-regeneration (%) after 3 weeks on SIM: 0%
[1]; 3 mM D-alanine + 7.5 mM D-serine, T1: REW008 with 1 week recovery
  D-alanine + 7.5 mM D-serine Kill Curve-regeneration (%) after 3 weeks on SIM: 100%
[1]; 3 mM D-alanine + 7.5 mM D-serine, T2: REW008 with no recovery
  D-alanine + 7.5 mM D-serine Kill Curve-regeneration (%) after 3 weeks on SIM: 100%
[1]; 7.5 mM D-alanine + 7.5 mM D-serine, T1: REW008 with 1 week recovery
  D-alanine + 7.5 mM D-serine Kill Curve-regeneration (%) after 3 weeks on SIM: 100%
[1]; 7.5 mM D-alanine + 7.5 mM D-serine, T2: REW008 with no recovery
  D-alanine + 7.5 mM D-serine Kill Curve-regeneration (%) after 3 weeks on SIM: 71%
[1]; 10 mM D-alanine + 7.5 mM D-serine, T1: REW008 with 1 week recovery
  D-alanine + 7.5 mM D-serine Kill Curve-regeneration (%) after 3 weeks on SIM: 71%
[1]; 10 mM D-alanine + 7.5 mM D-serine, T2: REW008 with no recovery
  D-alanine + 7.5 mM D-serine Kill Curve-regeneration (%) after 3 weeks on SIM: 57%
[1]; 20 mM D-alanine + 7.5 mM D-serine, T1: REW008 with 1 week recovery
  D-alanine + 7.5 mM D-serine Kill Curve-regeneration (%) after 3 weeks on SIM: 57%
[1]; 20 mM D-alanine + 7.5 mM D-serine, T2: REW008 with no recovery
  D-alanine + 7.5 mM D-serine Kill Curve-regeneration (%) after 3 weeks on SIM: 0%
[1]; 30 mM D-alanine + 7.5 mM D-serine, T1: REW008 with 1 week recovery
  D-alanine + 7.5 mM D-serine Kill Curve-regeneration (%) after 3 weeks on SIM: 0%
[1]; 30 mM D-alanine + 7.5 mM D-serine, T2: REW008 with no recovery
  D-alanine + 7.5 mM D-serine Kill Curve-regeneration (%) after 3 weeks on SIM: 14%
[1]; 50 mM D-alanine + 7.5 mM D-serine, T1: REW008 with 1 week recovery
  D-alanine + 7.5 mM D-serine Kill Curve-regeneration (%) after 3 weeks on SIM: 0%
[1]; 50 mM D-alanine + 7.5 mM D-serine, T2: REW008 with no recovery
  D-alanine + 7.5 mM D-serine Kill Curve-regeneration (%) after 3 weeks on SIM: 0%
[1]; explants exposed immediately after co-cultivation
  D-alanine concentration at which the regeneration frequency drops below 70%: 30 mM
[1]; explants with recovery
  D-alanine concentration at which the regeneration frequency drops below 70%: 20 mM

## c1ccc(CNc2ncnc3nc[nH]c23)cc1 [BAP, 6-benzylaminopurine]
Soybean explants; [2]
  Ave TE (%): 0.4%
  Confirmed events: 3
  TE range (%): 0-2.5%
Soybean explants; [3]
  Ave TE (%): 1.3%
  Confirmed events: 3
  TE range (%): 0-2.5%

## c1coc(CNc2ncnc3[nH]cnc23)c1 [Kinetin]
Soybean explants; [4]
  Ave TE (%): 1.4%
  Confirmed events: 10
  TE range (%): 0-6.4%
Soybean explants; [5]
  Ave TE (%): 2.3%
  Confirmed events: 9
  TE range (%): 0-4.2%
Soybean explants; [6]
  Ave TE (%): 2.7%
  Confirmed events: 19
  TE range (%): 0-9.8%
Soybean explants; [7]
  Ave TE (%): 3.7%
  Confirmed events: 8
  TE range (%): 1.3-8.1%
Soybean explants; [8]
  Ave TE (%): 2.5%
  Confirmed events: 6
  TE range (%): 2.3-2.7%
Soybean explants; [9]
  Ave TE (%): 1.8%
  Confirmed events: 4
  TE range (%): 1.2-3%
Soybean explants; [10]
  Ave TE (%): 2.2%
  Confirmed events: 5
  TE range (%): 0-5.2%
Soybean explants; both experiments
  average transformation efficiency with kinetin in the co-cultivation media compared with BAP: higher average transformation efficiencies
